Columns and labels:
[1] = tested on: PC3-human prostate cancer cells; assay: Cell proliferation inhibition (CYQuant intracellular DNA), PC3; format: cell-based; conditions: for % Cell Proliferation Inhibition (intracellular DNA) PC-3 (average ± E.P.M.): 72 hours
Protocol: (§1) For the execution of the assay, the compounds are diluted in DMSO 100% (v/v) at a concentration of 1000 μM and subsequently diluted in a Sodium Chloride solution 0.9% to obtain the storage solutions of interest for use in the assays. The final concentration of interest will be directly diluted in the cell culture medium. For the assay there are used the following tumor cell lineages: PC3-human prostate cancer cells; LNCAP-human prostate cancer cells; DU145-human prostate cancer; MNK45-human gastric cancer and RT4-human bladder cancer cells. The tumor cell lineages are maintained in culture according to standard procedures established by the Cell Bank of Rio de Janeiro (lineage place of origin) Procedure: • For the assay, the tumor cells are seeded in the concentration of 10.000 cells per well (final volume of the reaction of […]), the plate is incubated for 8 hours, for the cells to adhere to the wall of the wells. After this period, the plate is divided in groups: • (a) test group: […] of the samples were added (test compound) in the concentrations of interest; • (b) positive control group: […] of culture medium were added (100% of cell proliferation); • (c) negative control group: 200 mL of culture medium and […] of the vehicle used were added to dilute the compounds (without cells—zero proliferation); • (d) control group: […] were added of the vehicle used to dilute the compounds. This group is important to evaluate whether the vehicle used interferes in the cell proliferation. OBSERVATION: the treatment with the concentrations of samples (test compounds) and of the controls are carried out in triplicate. • Incubate the plate for 72 hours in a CO2 kiln at 37° C. • After the incubation period, add […] of the solution with DNA marker from the CYQuant Kit and incubate the plate, for 60 minutes, in a CO2 incubator at 37° C. The fluorescence intensity is determined using a fluorescence microplate reader with 485 nm excitation and 530 nm emission detection. The results obtained were normalized relative to the positive control group (100% proliferation). For the compounds there are prepared the storage solutions in the concentrations of: 100 nM, 1 μM, 3 μM, 5 μM, 10 μM and 30 μM (DMSO 10% v/v). While the final concentrations in the test are of: 10 nM, 100 nM, 300 nM, 500 nM, 1000 nM and 3000 nM (in DMSO 1% v/v).

[2] = tested on: LNCAP-human prostate cancer cells; assay: Cell proliferation inhibition (CYQuant intracellular DNA), LNCAP; format: cell-based; conditions: for % Cell Proliferation Inhibition (intracellular DNA) LNCAP (average ± E.P.M.): 72 hours
Protocol: as §1

[3] = tested on: RT4-human bladder cancer cells; assay: Cell proliferation inhibition (CYQuant intracellular DNA), RT4; format: cell-based; conditions: for % Cell Proliferation Inhibition (intracellular DNA) RT4 (average ± E.P.M.): 72 hours
Protocol: as §1

[4] = tested on: DU145-human prostate cancer; assay: Cell proliferation inhibition (CYQuant intracellular DNA), DU145; format: cell-based; conditions: for % Cell Proliferation Inhibition (intracellular DNA) DU145 (average ± E.P.M.): 72 hours
Protocol: as §1

PDE5A1 = target: T1, PDE5A1 (Homo sapiens, UniProt O76074); assay: PDE5A1 fluorescence polarization enzyme assay (BPS Bioscience kit 60350); format: biochemical
T1 construct: purchased BPS Bioscience 60350
Protocol: The evaluation of the compound is studied using BPS Bioscience enzyme assay kit (catalogue 60350). The PDE5A1 Assay kit is designed for identification of PDE5A1 inhibitors using fluorescence polarization. The assay is based on the binding of a fluorescent nucleotide monophosphate generated by PDE5A1 enzyme to the binding agent.
In this methodology only two simple steps on a microtiter plate are required for PDE5A1 reactions. First, the fluorescently labeled cGMP is incubated with PDE5A1 for 1 hour. Second, the binding agent is added to the reaction mixture to produce a change in fluorescent polarization that can then be measured using a fluorescence reader equipped for the measurement of fluorescence polarization.
For the assay the storage reagent FAM-Cyclic-3′,5′-GMP (20 μM) is diluted with PDE assay buffer to achieve the solution with a […]; the PDE5A1 enzyme is thawed and diluted with the PDE buffer obtaining a PDE5A1 solution at 10 μg/mL.
The assay compounds are diluted with DMSO 100% (v/v) at a concentration of 1000 μM and subsequently diluted in a Sodium chloride 0.9% solution to obtain a curve of concentrations of interest for the assay. The compounds are diluted in concentrations of: 10 nM, 30 nM, 50 nM, 100 nM, 300 nM, 500 nM, 1 μM, 3 μM, 5 μM (DMSO 10% v/v).
The study is comprised of groups: (i) substrate control; (ii) positive control (KIT); (iii) samples in several concentrations; (iv) tadalafil (comparative control). Each parameter (group) is triple labeled.
• For the 4 groups there is added, to each microplate well, […] of the FAM-Cyclic-3′ reagent, 5′-GMP (200 μM). • To the substrate control group there is added, to each well, […] of vehicle (DMSO 10% v/v) and […] PDE Buffer. • To the positive control group there is added, to each well, […] of vehicle (DMSO 10% v/v). • To the tadalafil group: there is added 5 mL of the solution in the concentrations of interest. • To the test group there is added 5 mL of the sample solution (test compound)
OBSERVATION: the parameters tested are in triplicate.
To begin the reaction, add […] of the PDE5A1 enzyme (diluted as described above) to the microplate wells designated as Positive Control and Samples (test and tadalafil), and incubate the microplate, for 1 hour, at a temperature of 25° C.
After the incubation period, the reaction is interrupted by the addition, in all the wells, of […] of the binding agent solution and the microplate is incubated for 30 minutes, under light stirring, at room temperature. The reading of the microplate is carried out in Polarized Fluorescence (475-495 nm—excitation and 518-538 nm—emission detection) 500 nanoseconds integration time.

[5] = tested on: MNK45-human gastric cancer; assay: Cell proliferation inhibition (CYQuant intracellular DNA), MNK45; format: cell-based; conditions: 72 hours
Protocol: as §1

(R)-3-(benzo [d][1, 3]dioxol-5-yl)-7-((R)-1-hydroxypropan-2-yl)-1-(1H-indole-3-yl)-6, 7-dihydro-3H-oxazole [3, 4-a]pyrazine-5, 8-dione with (S)-3-(benzo [d][1,3]dioxol-5-yl)-7-((R)-1-hydroxypropan-2-yl)-1-(1H-indole-3-yl)-6, 7-dihydro-3H-oxazole [3, 4-a]pyrazine-5, 8-dione [BL-380]
antiproliferative effect (result in words) ([1]; PC3 prostate cancer tumor lineage): presented antiproliferative effect
% Cell Proliferation Inhibition (intracellular DNA) PC-3 (average ± E.P.M.) ([1]; PC-3, 10 nM): 39 ± 6%
% Cell Proliferation Inhibition (intracellular DNA) PC-3 (average ± E.P.M.) ([1]; PC-3, 100 nM): 25 ± 5%
% Cell Proliferation Inhibition (intracellular DNA) PC-3 (average ± E.P.M.) ([1]; PC-3, 300 nM): 28 ± 2%
% Cell Proliferation Inhibition (intracellular DNA) PC-3 (average ± E.P.M.) ([1]; PC-3, 500 nM): 48 ± 6%
% Cell Proliferation Inhibition (intracellular DNA) PC-3 (average ± E.P.M.) ([1]; PC-3, 1000 nM): 40 ± 3%
% Cell Proliferation Inhibition (intracellular DNA) PC-3 (average ± E.P.M.) ([1]; PC-3, 3000 nM): 54 ± 4%
antiproliferative effect (result in words) ([2]; LNCAP prostate cancer tumor lineage): presented antiproliferative effect
% Cell Proliferation Inhibition (intracellular DNA) LNCAP (average ± E.P.M.) ([2]; 10 nM): 26 ± 10%
% Cell Proliferation Inhibition (intracellular DNA) LNCAP (average ± E.P.M.) ([2]; 100 nM): 12 ± 3%
% Cell Proliferation Inhibition (intracellular DNA) LNCAP (average ± E.P.M.) ([2]; 300 nM): 29 ± 6%
% Cell Proliferation Inhibition (intracellular DNA) LNCAP (average ± E.P.M.) ([2]; 500 nM): 27 ± 2%
% Cell Proliferation Inhibition (intracellular DNA) LNCAP (average ± E.P.M.) ([2]; 1000 nM): 37 ± 2%
% Cell Proliferation Inhibition (intracellular DNA) LNCAP (average ± E.P.M.) ([2]; 3000 nM): 48 ± 6%
% Cell Proliferation Inhibition (intracellular DNA) RT4 (average ± E.P.M.) ([3]; RT4, 100 nM): 8 ± 6%
% Cell Proliferation Inhibition (intracellular DNA) RT4 (average ± E.P.M.) ([3]; RT4, 300 nM): 5 ± 5%
% Cell Proliferation Inhibition (intracellular DNA) RT4 (average ± E.P.M.) ([3]; RT4, 500 nM): 3 ± 5%
% Cell Proliferation Inhibition (intracellular DNA) RT4 (average ± E.P.M.) ([3]; RT4, 1000 nM): 3 ± 1%
% Cell Proliferation Inhibition (intracellular DNA) RT4 (average ± E.P.M.) ([3]; RT4, 3000 nM): 58 ± 4%
antiproliferative effect (result in words) ([3]; RT4 bladder cancer tumor lineage): presented antiproliferative effect
% Cell Proliferation Inhibition (intracellular DNA) DU145 (average ± E.P.M.) ([4]; DU145, 100 nM): 12 ± 4%
% Cell Proliferation Inhibition (intracellular DNA) DU145 (average ± E.P.M.) ([4]; DU145, 300 nM): 10 ± 5%
% Cell Proliferation Inhibition (intracellular DNA) DU145 (average ± E.P.M.) ([4]; DU145, 500 nM): 12 ± 2%
% Cell Proliferation Inhibition (intracellular DNA) DU145 (average ± E.P.M.) ([4]; DU145, 1000 nM): 10 ± 3%
% Cell Proliferation Inhibition (intracellular DNA) DU145 (average ± E.P.M.) ([4]; DU145, 3000 nM): 31 ± 5%
antiproliferative effect (result in words) ([4]; DU145 prostate cancer tumor lineage): presented antiproliferative effect
% of Inhibition (PDE5A1) (PDE5A1; compound 10 nM): 0%
% of Inhibition (PDE5A1) (PDE5A1; compound 30 nM): 0%
% of Inhibition (PDE5A1) (PDE5A1; compound 50 nM): 0%
% of Inhibition (PDE5A1) (PDE5A1; compound 100 nM): 0%
% of Inhibition (PDE5A1) (PDE5A1; compound 300 nM): 15 ± 3%
% of Inhibition (PDE5A1) (PDE5A1; compound 500 nM): 25 ± 3%
% of Inhibition (PDE5A1) (PDE5A1; compound 1000 nM): 55 ± 4%
% of Inhibition (PDE5A1) (PDE5A1; compound 3000 nM): 65 ± 2%
% of Inhibition (PDE5A1) (PDE5A1; compound 5000 nM): 78 ± 1%
PDE5 inhibition (result in words) (PDE5A1; concentration series): capable of inhibiting the PDE5 in a dose-dependent manner
concentration as from which PDE5 inhibition was observed (PDE5A1; tested 10 nM to 5000 nM): ≥ 300 nM
% Cell Proliferation Inhibition (intracellular DNA) MNK45 (average ± E.P.M.) ([5]; MNK45, 100 nM): 7 ± 2%
% Cell Proliferation Inhibition (intracellular DNA) MNK45 (average ± E.P.M.) ([5]; MNK45, 300 nM): 0%
% Cell Proliferation Inhibition (intracellular DNA) MNK45 (average ± E.P.M.) ([5]; MNK45, 500 nM): 0%
% Cell Proliferation Inhibition (intracellular DNA) MNK45 (average ± E.P.M.) ([5]; MNK45, 1000 nM): 0%
% Cell Proliferation Inhibition (intracellular DNA) MNK45 (average ± E.P.M.) ([5]; MNK45, 3000 nM): 16 ± 5%
